Data set [1] concerns the target T1, Mu-type opioid receptor (Mus musculus, UniProt P42866). The data set can be described thus: Displacement of [3H]DAMGO from mouse spinal cord MOP measured after 60 mins by liquid scintillation counter analysis. It is filed as tissue-based.
Data set [2] is filed under the species Mus musculus. The data set can be described thus: Antinociceptive activity in mouse […]. Type of data set: functional. The note with it: time 2 hrs.
The test system of data set [3] is Mus musculus. The data set can be described thus: Antinociceptive activity in mouse administered sc by tail pressure test. It is filed as functional.
Data set [4] concerns the target T2, Kappa-type opioid receptor (Mus musculus, UniProt P33534). The data set can be described thus: Displacement of [3H]U-69593 from mouse spinal cord KOP measured after 60 mins by liquid scintillation counter analysis. It is filed as tissue-based.
In data set [5] the test system is Mus musculus. The data set can be described thus: Antinociceptive activity in mouse administered po by tail pressure test. It is filed as functional.
The target in data set [6] is T3, Delta-type opioid receptor (Mus musculus, UniProt P32300). Nature of the data set: Displacement of [3H]deltorphin-II from mouse spinal cord DOP measured after 60 mins by liquid scintillation counter analysis. Type of data set: tissue-based. (In general: Displacement assays read how much labelled ligand stays bound in the presence of the test substance.)
In data set [7] the test system is Mus musculus. Nature of the data set: Antinociceptive activity in icv dosed mouse assessed as tail flick latency. Type of data set: functional. A general note: Thermal pain tests record how soon the animal reacts.
Data set [8] has as its system Mus musculus. The data set can be described thus: Antinociceptive activity in sc dosed mouse assessed as tail flick latency. It is filed as functional.
Data set [9] concerns Mus musculus. The data set can be described thus: Antinociceptive activity in mouse administered po. It is filed as functional.
In data set [10] the test system is Mus musculus. Nature of the data set: Antinociceptive activity in mouse administered sc. It is filed as functional.
Data set [11] relates to Mus musculus. The data set can be described thus: Antinociceptive activity in mouse administered IT. Type of data set: functional.
For data set [12], the target named is T3, Delta-type opioid receptor. The data set can be described thus: Displacement of [3H]DPDPE from mouse brain cerebellum DOP incubated for 2 hrs by liquid scintillation counter analysis. Type of data set: tissue-based.
In data set [13] the target is T1, Mu-type opioid receptor. Nature of the data set: Displacement of [3H]DAMGO from mouse brain cerebellum MOP incubated for 2 hrs by liquid scintillation counter analysis. Type of data set: tissue-based.
Data set [14] in a line: Toxicity in mouse assessed as inhibition of gastrointestinal transit at 3.2 to 32 pmol IT or sc by charcoal meal test. The note with it: in vivo, other, dose 3.2-32 pmol. It is filed as organism-based.
Data set [15] has as its target Mu-type opioid receptor (Bos taurus, UniProt P79350). Nature of the data set: Displacement of [3H]DAMGO from calf thalamus membrane MOP by competitive binding assay. Type of data set: cell membranes.
Data set [16] in a line: Displacement of [3H]DPDPE from calf frontal cortex membrane Delta-type opioid receptor by competitive binding assay. Type of data set: cell membranes, Bos taurus.
Data set [17] addresses T2, Kappa-type opioid receptor. Nature of the data set: Displacement of [3H]U69593 from mouse brain membrane KOP by competitive binding assay. Type of data set: cell membranes.
In data set [18] the test system is Mus musculus. The data set can be described thus: Antinociceptive activity in mouse at 3.2 to 32 pmol IT or sc. The note with it: dose 3.2-32 pmol. Type of data set: functional.
For data set [19], the system named is Rattus norvegicus. Nature of the data set: Antinociceptive activity in rat at 2.5 to 5 mg/kg, icv.
Data set [20] relates to Rattus norvegicus. Nature of the data set: Antinociceptive activity in rat administered iv. It is filed as functional.
For data set [21], the species on record is Rattus norvegicus. The data set can be described thus: Antinociceptive activity in rat. The note with it: Rattus norvegicus; read-out: ED50. It is filed as functional.
For data set [22], the system named is Mus musculus. Nature of the data set: Antinociceptive activity in mouse administered icv. It is filed as functional.
Data set [23] deals with Mus musculus. The data set can be described thus: Antinociceptive activity in mouse assessed as tail-flick latency administered icv […]. Type of data set: functional.
The species entered for data set [24] is Mus musculus. The data set can be described thus: Antinociceptive activity in mouse by hot plate test.
Data set [25] deals with Mus musculus. The data set can be described thus: Antinociceptive activity in mouse administered icv by tail pressure test. It is filed as functional.
The subject of data set [26] is Mus musculus. The data set can be described thus: Antinociceptive activity in mouse administered IT by tail pressure test. Type of data set: functional.
The species named for data set [27] is Mus musculus. Nature of the data set: Antinociceptive activity in mouse by tail pressure test. It is filed as functional. The note with it: Mus musculus; read-out: ED50.
Data set [28] has as its target Kappa-type opioid receptor (Homo sapiens, UniProt P41145). The data set can be described thus: Agonist activity at KOP (unknown origin) assessed as inhibition of forskolin-induced cAMP accumulation. Type of data set: functional. (In general: Cyclic AMP is a second messenger, typically raised through Gs and lowered through Gi signalling.)
For data set [29], the system named is Mus musculus. The data set can be described thus: Antinociceptive activity in ip dosed mouse assessed as tail flick latency. It is filed as functional.
In data set [30] the target is Mu-type opioid receptor (Homo sapiens, UniProt P35372). Nature of the data set: Agonist activity at human MOP stably expressed in CHO-K1 cells assessed as inhibition of forskolin-induced cAMP accumulation. Type of data set: functional, cell-based.
Data set [31] addresses T2, Kappa-type opioid receptor. Nature of the data set: Agonist activity at C57BL6/J mouse brain KOP by calcium mobilization assay. Type of data set: functional, tissue-based.
For data set [32], the target named is T2, Kappa-type opioid receptor. Nature of the data set: Agonist activity at C57BL6/J mouse brain KOP. Type of data set: functional, tissue-based.
For data set [33], the target named is T2, Kappa-type opioid receptor. Nature of the data set: Displacement of [3H]U69593 from C57BL6/J mouse brain KOP. It is filed as tissue-based.

As to `CN(CCC(=O)O)C(=O)[C@H](Cc1ccccc1)NC(=O)[C@@H](CCCNC(=N)N)NC(=O)[C@H](Cc1ccc(O)cc1)NC(=N)N`, the results for the Ki (at Mu-type opioid receptor [1]; in [4]; in data set [6]) were 12.9 nM, above 1000 nM and above 1000 nM, respectively. Besides, the results for the ED50 in the data set filed under Mus musculus [2], in the data set on Mus musculus [3] and in the data set on Mus musculus [5] were 0.07 mg/kg, 0.09 mg/kg and 5.8 mg/kg, respectively.
For the compound `COC(=O)[C@@H]1C[C@H](OC(C)=O)C(=O)[C@H]2[C@@]1(C)CC[C@H]1C(=O)O[C@H](c3ccoc3)C[C@]21C` [SALVINORIN A], the ED50 in the data set with Mus musculus [7] was found to be 1.5 µg; in the data set on Mus musculus [8] it was 2.1 mg/kg.
As to `N=C(N)NCCC[C@@H](NC(=O)[C@H](Cc1ccc(O)cc1)NC(=N)N)C(=O)N[C@@H](Cc1ccccc1)C(=O)NCCC(=O)O`, the values for the ED50 in the data set on Mus musculus [9], with Mus musculus [10] and in the data set on Mus musculus [11] were 19 mg/kg, 0.24 mg/kg and 0.34 pmol, respectively. Besides, the Ki (usually the equilibrium dissociation constant of an inhibitor or competing ligand from its target) on Mu-type opioid receptor [1] is 12.9 nM; in [4], above 1000 nM; in [12], 160 nM; in data set [6], above 1000 nM; on Mu-type opioid receptor [13], 0.67 nM.
In the case of `Cc1cc(O)cc(C)c1C[C@H](N)C(=O)N[C@H](CCCNC(=N)N)C(=O)N[C@@H](Cc1ccccc1)C(=O)N[C@@H](CCCCN)C(N)=O`, the ED50 in data set [14] turned out to be 0.006 mg/kg; with Mus musculus [18] it was 0.0655 mg/kg. Besides, the Ki on Mu-type opioid receptor [15] was 0.14 nM; in [16] it was 116 nM; in data set [17] it was 11.5 nM.
On to `CN1CC[C@]23c4c5ccc(O)c4O[C@H]2[C@@H](O)C=C[C@H]3[C@H]1C5` [MORPHINE], for which the ED50 in the data set with Rattus norvegicus [19] amounted to 169 µmol/kg; in the data set on Rattus norvegicus [20], 1.6 µmol/kg; in the data set listed under Rattus norvegicus [21] it was 5.8 µmol/kg; in the data set with Mus musculus [22], 8.7 nmol; in the data set with Mus musculus [23] it was 17.3 nmol; in the data set filed under Mus musculus [24], 11.3 µmol/kg. The ED50 in the data set with Mus musculus [3] amounted to 12.2 µmol/kg; in the data set with Mus musculus [25], 1.05 nmol; with Mus musculus [26], 0.72 pmol; in the data set filed under Mus musculus [27], 77.2 µmol/kg.
For the compound `COC(=O)[C@@H]1C[C@H](OC(=O)c2ccc(CO)cc2)C(=O)[C@H]2[C@@]1(C)CC[C@H]1C(=O)O[C@H](c3ccoc3)C[C@]21C`, the results for the EC50 (in data set [28]; at Mu-type opioid receptor [30]) were above 10000 nM and 0.03 nM, respectively. Besides, the ED50 in the data set with Mus musculus [29] was 2.35 mg/kg.
On to `CCC(=O)O[C@H]1C[C@@H](C(=O)OC)[C@]2(C)CC[C@H]3C(=O)O[C@H](c4ccoc4)C[C@]3(C)[C@H]2C1=O`, for which the EC50 (usually the concentration at which the effect is half-maximal) in data set [31] amounted to 102 nM; in data set [32], 17 nM. In data set [33], this compound showed a Ki of 32.6 nM.
